Reference: patent publication US6551815B1, “In situ denitrification” (University of New Mexico, priority 1997, dated 2003)
Values joined by “and” are separate entries in the source; they are usually repeats but may differ in a detail not shown here. Equal values may be shown once. “Also recorded” adds a separate entry of the source. Read-outs that look alike come from different tables or passages of the source.

Experiments:
[1] = system: indigenous denitrifying bacteria naturally present in the groundwater; experiment: Serum bottle denitrification of Tuba City groundwater amended with carbon and phosphorus sources; type: cell-based; conditions: for concentration (as high as) at which activity of denitrifiers was not inhibited: initial nitrate about 21 mM
Procedure: In situ biological denitrification was studied as a groundwater remediation process with nitrogen as the final product at an UMTRA site in Tuba City, Ariz. Nitrate contaminated groundwater and soil from the contaminated field site were used, and in all experiments the initial nitrate concentration was about 1300 mg/L and the pH was 7.5-8. Denitrification was studied in a 2.5 L fermentor and in 120 mL serum bottles using a water to soil ratio of 100 mL/8 g and indigenous denitrifying bacteria naturally present in the groundwater. Oxygen was removed initially by purging with argon for 15 minutes. […] Nitrate, nitrite, carbon source, and pH changes were monitored during denitrification. Eh was indicated using a resazurin dye. […] For each carbon source, the stoichiometric equation is present, and a theoretical yield coefficient was determined from each stoichiometric equation.
The water samples were kept in 1000 mL plastic bottles and reserved in a refrigerator.
Chemicals used for phosphorus amendment included orthophosphate KH2PO4, trimetaphosphate Na3P3O9 (Sigma Co.) and polyphosphate (NaPO3)n (Aldrich Co.). All chemicals were A.C.S. reagent grade. Crushed sands were prepared by pulverizing the core samples (about 47 to 100 feet depth) from the Tuba City site using a pestle and mortar. This Navajo sandstone is a fine to fine grained unit with median grain size diameter (d50) about 0.11 mm. The sandstone was kept without contamination by organic chemicals.
(§1) Stock solution mixtures with neutral pH and total volume less than 15 mL for denitrification amendment, including carbon source and phosphorus sources, 0.05 mL of a 0.2% resazurin solution (redox potential indicator), and 8 g crushed sand for part experiments, were added into a 160 mL serum bottle, which was then autoclaved at 121° C. (250° F.) for 20 min. Groundwater sample was added under aseptic environment after the bottle cooled down, and the serum bottle was sealed with a butyl rubber stopper and crimped with an aluminum seal. Total volume of the liquid was about 100 to 120 mL. The solution was then purged with argon gas through a 22 gauge long needle for 15 min to ensure that an anaerobic environment was maintained, and another needle was used for gas exhaustion at the same time. The exhaustion needle was taken out before the spinal needle was done, and the serum bottle was pressurized under 7-10 psig. To keep the gas phase sterile, a gas filter with 0.2 μm pore size was used. Serum bottles were kept either at room temperature about 23±1° C. and shaken 2 to 3 times every day or kept at 16° C. in a Lindberg/Blue M constant temperature refrigerated shaker waterbath model RSWB3222A (A General Signal Company, NC). No denitrifying bacteria were inoculated to water samples, and pH was not controlled for all of the experiments. Denitrification process via the activity of the indigenous denitrifiers present in the groundwater was monitored. Disposable syringes were used for sampling.
The IC unit, Dionex DX 500 chromatography system (Dionex Co., CA), consists of a GP 40-1 gradient pump, an ED 40-1 electrochemical detector, and a LC 10-2 chromatography organizer with an lonpac AS 11 analytical column (4 mm) and an ASRS-1 (4 mm) anion self-regenerating suppresser as its main components. This lonpac AS 11 4-mm analytical column with functional group of alkanol quaternary ammonium is designed to resolve a number of inorganic anions and organic acid anions from a single sample injection in one gradient run using hydroxide eluent systems such as NaOH used in our experiment.

indigenous bacteria = experiment: Batch denitrification of Mountainview groundwater; type: cell-based
[2] = Phosphate precipitation in amended groundwater (serum bottles); type: physicochemical; conditions: for calcium phosphate precipitation as compared to orthophosphate: Tuba City groundwater
Procedure: as §1, with “The solution was then purged with argon gas through a 22 gauge long needle for 15 min to ensure that an anaerobic environment was maintained, and another needle was used for gas exhaustion at the same time.” left out
Triple serum bottle experiments were run in parallel at room temperature about 23±1° C.

[3] = complete = <1 mg/L for N, core sand, KH2PO4, 23±1° C.
[4] = groundwater with core sand, KH2PO4 100 mg/L, 23±1° C.
[5] = serum bottles purged with argon

Q: With `CC(=O)[O-].[K+]` [Acetate, potassium acetate] as the compound, how does the “C/N molar ratio for nearly complete denitrification (Table 5)” value (shortened to “C/N molar ratio … (Table 5)”) [1] read?
A: 1.425

Q: What about the “C/N molar ratio, minimum for nearly complete denitrification” value (“C/N molar ratio, minimum” for short) [1] of the same compound?
A: 1.425

Q: What about the Denitrification efficiency [1] of the same compound?
A: 0% and 7-10%

Q: And the “minimum C/N molar ratio for complete denitrification” value (“minimum C/N molar ratio” for short) [1]?
A: 1.425

Q: What about the “nitrate reduced after two months” value [1] of the same compound?
A: 5%

Q: What about the “denitrification via indigenous bacteria” value (indigenous bacteria; potassium acetate without TMP) of the same compound?
A: did not work

Q: With `CCO` [Ethanol, ethanol] as the compound, how does the “minimum C/N molar ratio” value [1, 3] read?
A: 1.083

Q: And the “C/N molar ratio … (Table 5)” value [1, 4]?
A: 1.083

Q: What about the “C/N molar ratio, minimum” value [1, 4] of the same compound?
A: 1.083

Q: And the “concentration (as high as) at which activity of denitrifiers was not inhibited” value [1]?
A: 25 mM

Q: And the denitrification time ([1]; orthophosphate, whole group of experiments finished, FIG. 5(f))?
A: about 3.5 weeks

Q: What about the “time at which nitrate reduction completed or stopped” value ([1]; polyphosphate 100 mg NaPO3/L, core sand, argon purge, 23±1° C., ethanol insufficient for complete denitrification) of the same compound?
A: about 30 days

Q: What does the source list for `CC(O)C(=O)[O-].[Na+]` (stereo not shown) [Lactate, sodium lactate]?
A: minimum C/N molar ratio for complete denitrification [1, 3]: 2; C/N molar ratio for nearly complete denitrification (Table 5) [1, 4]: 2.000; C/N molar ratio, minimum for nearly complete denitrification [1, 4]: 2.000

Q: With `CO` [Methanol, methanol] as the compound, how does the “minimum C/N molar ratio” value [1, 3] read?
A: 1

Q: And the “C/N molar ratio … (Table 5)” value [1, 4]?
A: 1.000

Q: And the “C/N molar ratio, minimum” value [1, 4]?
A: 1.000

Q: And the “concentration (as high as) at which activity of denitrifiers was not inhibited” value [1]?
A: 45 mM

Q: What does the source list for `O=P1([O-])OP(=O)([O-])OP(=O)([O-])O1.[Na+].[Na+].[Na+]` [TMP, trimetaphosphate]?
A: time to complete denitrification ([1]; TMP 100 mg NaPO3/L and acetate, with sand, 16° C.): 28 days; denitrification time longer than with orthophosphate ([1]; TMP and acetate, with sand, 16° C.): 11 days; calcium phosphate precipitation as compared to orthophosphate [2]: reduced calcium phosphate precipitation; phosphate precipitate observed in groundwater [2, 5]: No phosphate precipitate was found in three weeks; also recorded: No phosphate precipitate was found while purging with argon, even in two weeks; denitrification via indigenous bacteria (indigenous bacteria; groundwater amended with potassium acetate and 20 mg TMP/L): worked successfully

Q: With `O=P(O)(O)O` [orthophosphate, reference compound] as the compound, how does the “phosphate precipitate observed in groundwater” value (from here on “phosphate precipitate observed”) [2, 5] read?
A: Precipitate of orthophosphate (0.7-0.8 mM) formed

Q: Which “calcium phosphate precipitation as compared to orthophosphate” value [2] does the source give for polyphosphate here?
A: reduced calcium phosphate precipitation

Q: And the “phosphate precipitate observed” value ([2]; acetate and polyphosphate, no core sand, without purging with argon)?
A: Phosphate precipitate was not found; also recorded: White precipitates were not found until a week later

Q: And the “phosphate precipitate observed” value [2, 5]?
A: precipitate was found right after purging with argon; also recorded: white precipitates appeared while purging with argon
